# Results: patent publication US6218392A, “Fused pyridazine compounds” (priority 1994, dated 2001)
# Structures can show the parent of a compound that is named as a salt.
# Key:
# cGMP-PDE = molecular target: T1, cGMP-PDE (Sus scrofa, UniProt A0A287B475); test: Inhibitory activity against cGMP-PDE prepared from swine lung; assay type: biochemical; conditions: 1 mM EGTA, 1 mM cGMP as substrate, DMSO 5% or below
# T1 construct: Swine lung was minched, followed by the addition of five times (by volume) as much buffer A; from tissue; host or cells: swine lung
# Procedure: The enzyme activity of the cGMP-PDE prepared from swine lung was determined according to the method of Thompson et al. This determination was conducted in the presence of 1 mM EGTA by the use of 1 mM cGMP as substrate. Each compound according to the present invention was dissolved in DMSO and thereafter added to the reaction system to determine the inhibitory activity of the compound. The final concentration of DMSO in the reaction solution was controlled to 5% or below.
# The preparation of cGMP-PDE was conducted as follows.
# Swine lung was minched, followed by the addition of five times (by volume) as much buffer A (comprising Tris/HCl (20 mM), Mg acetate (2 mM), 2-mercaptoethanol (10 mM), EGTA (0.1 mM) and PMSF (0.2 mM) and adjusted to pH7.4). The resulting mixture was homogenized and centrifuged at 1000×g for 5 minutes. Ammonium sulfate was added to the obtained supernatant and the resulting mixture was centrifuged at 20000×g for 45 minutes to collect a fraction precipitating between 30 and 40% saturation with ammonium sulfate. This fraction was dialyzed against buffer A and passed through a column of DEAE-Toyopearl 650S (a product of Tosoh, Tokyo, Japan). The column was washed with buffer A and subjected to gradient elution with 0.05 to 0.2 M NaClibuffer A to collect a cGMP-PDE fraction.
# This cGMP-PDE fraction was passed through Blue-Sepharose CL-6B (a product of Pharmacia, Uppsala, Sweden). The resulting column was washed with buffer A containing cAMP (10 mM) and NaCl (0.5 M) and eluted with buffer A containing cGMP (10 mM) and NaCl (0.5 M). The obtained fraction was dialyzed, concentrated and stored.
# [1] = tested on: pulmonary arterial pressure (PAP); test: Pulmonary arterial pressure lowering activity on anesthetized thoracotomized dog by intravenous administration; assay type: in vivo; conditions: relative ratio to activity of sodium 1-[chloro-4-(3,4-methylenedioxybenzyl)aminoquinazolin-2-yl]piperidine-4-carboxylate
# Procedure: Male and female hybrid dogs having a weight of about 10 kg were operated under enflurane anesthesia with N2 O/O2 as carrier. Each dog was thoracotomized in the left fourth intercostal space and a pressure transducer (MPC-500 mfd. by Miller) was inserted into the pulmonary artery to determine the pulmonary arterial pressure (PAP). This experiment was conducted with the mean PAP (mPAP) increased by about 10 mmHg by lowering the pressure of oxygen fed by about 40% of the normal one. Each compound according to the present invention was dissolved in Polyethylene glycol 400 (a product of Wako Pure Chemical Industries, Ltd.) in a concentration of 1 mg/ml and, if necessary, further diluted with Polyethylene glycol 400. The resulting solution was intravenously administered to the dog through a polyethylene catheter indwelling in the femoral vein.
Compound,IC50 (cGMP-PDE),PAP lowering activity [1]
"COc1ccc(CNc2nnc(Cl)c3ccc([N+](=O)[O-])cc23)cc1Cl [Example 49, 1-Chloro-4-(3-chloro-4-methoxybenzyl)amino-6-nitrophthalazine]",1.88 nM,1
"COc1ccc(CNc2nn(CCCO)c(=O)c3ccc(C#N)cc23)cc1Cl [Example 25, 4-(3-Chloro-4-methoxybenzyl)amino-6-cyano-2-(3-hydroxypropyl)-1(2H)-phthalazinone]",1.41 nM,3
"COc1ccc(CNc2nnc(NCCCO)c3ccc(C#N)cc23)cc1Cl [Example 7, 4-(3-Chloro-4-methoxybenzyl)amino-6-cyano-1-(3-hydroxypropyl)aminophthalazine]",1.2 nM,1
"COc1ccc(CNc2nnc(N3CCC(C(=O)O)CC3)c3ccc(Cl)cc23)cc1Cl [Example 43, 1-(4-Carboxypiperidino)-6-chloro-4-(3-chloro-4-methoxybenzyl)aminophthalazine]",0.37 nM,1
"COc1ccc(CNc2nnc(N3CCC(C)(O)CC3)c3ccc(C#N)cc23)cc1Cl.Cl [Example 9, 4-(3-Chloro-4-methoxybenzyl)amino-6-cyano-1-(4-hydroxy-4-methylpiperidino)phthalazine hydrochloride]",0.7 nM,10
"COc1ccc(CNc2nnc(NCc3ccccn3)c3ccc(C#N)cc23)cc1Cl [Example 11, 4-(3-Chloro-4-methoxybenzyl)amino-6-cyano-1-(2-pyridylmethyl)aminophthalazine dihydrochloride]",0.11 nM,
"COc1ccc(CNc2nnc(N3CCCC(O)C3)c3ccc(C#N)cc23)cc1Cl.Cl (stereo not drawn) [Example 10, 4-(3-Chloro-4-methoxybenzyl)amino-6-cyano-1-(3-hydroxypiperidino)phthalazine hydrochloride]",,10
"Cl.N#Cc1ccc2c(N3CCC(O)CC3)nnc(NCc3ccc4c(c3)OCO4)c2c1 [Example 26, 6-Cyano-1-(4-hydroxypiperidino)-4-(3,4-methylenedioxy-benzyl)aminophthalazine hydrochloride]",4 nM,1
"COc1ccc(CNc2nnc(N3CCC(O)CC3)c3ccc([N+](=O)[O-])cc23)cc1Cl [Example 51, 4-(3-Chloro-4-methoxybenzyl)amino-1-(4-hydroxy-piperidino)-6-nitrophthalazine hydrochloride]",0.052 nM,
"COc1ccc(CNc2nnc(-n3ccnc3)c3ccc(Cl)cc23)cc1Cl [Example 31, 6-Chloro-4-(3-chloro-4-methoxybenzyl)amino-1-(imidazol-1-yl)phthalazine]",3.74 nM,1
"COc1ccc(CNc2nnc(N3CCC(C(=O)O)CC3)c3cc(Cl)c(Cl)cc23)cc1Cl [Example 67, 1-(4-Carboxypiperidino)-4-(3-chloro-4-methoxybenzyl)amino-6,7-dichlorophthalazine]",0.32 nM,0.33
"O=[N+]([O-])c1ccc2c(-n3ccnc3)nnc(NCc3ccc4c(c3)OCO4)c2c1 [Example 60, 1-(Imidazol-1-yl)-4-(3,4-methylenedioxybenzyl)amino-6-nitrophthalazine]",20.4 nM,1
"CCOC(=O)C1CCN(c2nnc(NCc3ccc(OC)c(Cl)c3)c3cc([N+](=O)[O-])ccc23)CC1 [Example 55, 1-(4-Ethoxycarbonylpiperidino)-4-(3-chloro-4-methoxybenzyl)amino-6-nitrophthalazine]",4.59 nM,≥ 1
"COc1ccc(CNc2nnc(Cl)c3ccc(C#N)cc23)cc1Cl [Example 1, 1-Chloro-4-(3-chloro-4-methoxybenzyl)amino-6-cyanophthalazine]",1.7 nM,≥ 3
"COc1ccc(CNc2nnc(N3CCC(=O)CC3)c3ccc(C#N)cc23)cc1Cl.Cl [Example 19, 4-(3-Chloro-4-methoxybenzyl)amino-6-cyano-1-(4-oxopiperidino)phthalazine hydrochloride]",0.53 nM,3-10
"COc1ccc(CNc2nnc(N3CCC(CO)CC3)c3ccc(Cl)cc23)cc1Cl [Example 36, 6-Chloro-4-(3-chloro-4-methoxybenzyl)amino-1-[4-(hydroxymethyl)piperidino]phthalazine]",1.9 nM,≥ 1
"COc1ccc(CNc2nnc(N3CCC(CO)CC3)c3ccc(C#N)cc23)cc1Cl.Cl [Example 6, 4-(3-Chloro-4-methoxybenzyl)amino-6-cyano-1-[4-(hydroxymethyl)piperidino]phthalazine hydrochloride]",0.015 nM,10
"COc1ccc(CNc2nnc(N3CCC(CO)CC3)c3ccc([N+](=O)[O-])cc23)cc1Cl.Cl [Example 52, 4-(3-Chloro-4-methoxybenzyl)amino-1-[4-(hydroxymethyl)piperidino]-6-nitrophthalazine hydrochloride]",0.1 nM,10
"COc1ccc(CNc2nnc(N3CCC(C(=O)O)CC3)c3ccc(C#N)cc23)cc1Cl [Example 20, 1-(4-Carboxypiperidino)-4-(3-chloro-4-methoxybenzyl)-amino-6-cyanophthalazine hydrochloride]",0.12 nM,0.3-1
"COc1ccc(CNc2nnc(N3CCC(CCO)CC3)c3ccc([N+](=O)[O-])cc23)cc1Cl.Cl [Example 53, 4-(3-Chloro-4-methoxybenzyl)amino-1-[4-(2-hydroxyethyl)piperidino]-6-nitrophthalazine hydrochloride]",0.23 nM,10
"COc1ccc(CNc2nnc(N3CCC(O)CC3)c3ccc(Cl)cc23)cc1Cl.Cl [Example 32, 6-Chloro-4-(3-chloro-4-methoxybenzyl)amino-1-(4-hydroxypiperidino)phthalazine hydrochloride]",4.4 nM,1
"COc1ccc(CNc2nnc(N3CCC(C(=O)O)CC3)c3ccc([N+](=O)[O-])cc23)cc1Cl.Cl [Example 56, 1-(4-Carboxypiperidino)-4-(3-chloro-4-methoxybenzyl)amino-6-nitrophthalazine hydrochloride]",12.6 nM,≥ 1
"COc1ccc(CNc2nnc(N3CCC(O)CC3)c3ccc(C#N)cc23)cc1Cl [Example 4, 4-(3-Chloro-4-methoxybenzyl)amino-6-cyano-1-(4-hydroxypiperidino)phthalazine hydrochloride]",0.18 nM,
"COc1ccc(CNc2nnc(N3CCC(CCO)CC3)c3ccc(Cl)cc23)cc1Cl [Example 37, 6-Chloro-4-(3-chloro-4-methoxybenzyl)amino-1-[4-(2-hydroxyethyl)piperidino]phthalazine]",1.8 nM,≤ 0.33
"COc1ccc(CNc2nnc(N3CCC(CCO)CC3)c3ccc(C#N)cc23)cc1Cl.Cl [Example 8, 4-(3-Chloro-4-methoxybenzyl)amino-6-cyano-1-[4-(2-hydroxyethyl)piperidino]phthalazine hydrochloride]",0.03 nM,10
COc1ccc(CNc2nnc(N(C)CCCC(=O)O)c3ccc(Cl)cc23)cc1Cl [Example 44],2.1 nM,≤ 0.33
